Key:
[1] = system: CHIKV Indian Ocean strain 899; test: CHIKV CPE reduction assay; format: cell-based, chikungunya virus (CHIKV); conditions: BGM cells, 0.001 MOI CHIKV 899, day 5 p.i.
[2] = system: human cancer cell lines; conditions: growth inhibition; cited from earlier work
[3] = system: BGM cells; test: Cytotoxic/cytostatic effect in uninfected cells; format: cell-based, buffalo green monkey; conditions: compound alone

In the case of `CCC/C=C/C=C/C(=O)O[C@H]1/C(=C/C(=O)OC)C[C@H]2C[C@H]([C@@H](C)O)OC(=O)C[C@H](O)C[C@@H]3C[C@H](OC(C)=O)C(C)(C)[C@](O)(C[C@@H]4C/C(=C/C(=O)OC)C[C@H](/C=C/C(C)(C)[C@]1(O)O2)O4)O3` [compound 1, Bryostatin 1, reference compound], the “EC50 (concentration of compound that reduces the CHIKV-induced cytopathic effect by 50%)” value ([1]; listed as bryostatin) is reported as “ineffective” and the “EC50 (concentration of compound that reduces the CHIKV-induced cytopathic effect by 50%)” value ([1]; listed as bryostatin 1) is reported as “inactive”.
For `CCCCCCCC(=O)O[C@H]1/C(=C/C(=O)OC)C[C@H]2C[C@H](CO)OC(=O)C[C@H](O)C[C@@H]3CCC[C@H](C[C@@H]4CCO[C@H](/C=C/C(C)(C)[C@]1(O)O2)O4)O3` [compound 3], the “effectiveness of the analogue relative to the natural product (bryostatin)” value [2] is given as 2–3 orders of magnitude.
With `CCCCCCCC(=O)O[C@H]1/C(=C/C(=O)OC)C[C@H]2C[C@H](CO)OC(=O)C[C@H](O)C[C@@H]3C[C@H](OC(C)=O)C(C)(C)[C@H](C[C@@H]4CCO[C@H](/C=C/C(C)(C)[C@]1(O)O2)O4)O3` [compound 10] the “CC50 (concentration at which cell viability is 50% relative to untreated cells)” value [3] was “nontoxic” and the “EC50 (concentration of compound that reduces the CHIKV-induced cytopathic effect by 50%)” value [1] was “potent”.
In the case of `C=C1C[C@H]2C[C@]3(O)O[C@H](C[C@@H](O)CC(=O)O[C@@H](CO)C[C@@H]4C/C(=C\C(=O)OC)[C@H](OC(=O)CCCCCCC)[C@@](O)(O4)C(C)(C)/C=C/[C@@H](C1)O2)C[C@H](O)C3(C)C` [compound 18], the “EC50 (concentration of compound that reduces the CHIKV-induced cytopathic effect by 50%)” value [1] is reported as “toxicity before any observable cell-protective effect”.
For `C=C1C[C@H]2C[C@]3(O)O[C@H](C[C@@H](O)CC(=O)O[C@@H](CO)C[C@@H]4C/C(=C\C(=O)OC)[C@H](OC(=O)CCCCCCC)[C@@](O)(O4)C(C)(C)/C=C/[C@@H](C1)O2)C[C@H](OC(C)=O)C3(C)C` [compound 19], the “EC50 (concentration of compound that reduces the CHIKV-induced cytopathic effect by 50%)” value [1] was “toxicity before any observable cell-protective effect”.

Source: publication PMC4928627 (Journal of Natural Products, 2016)
